According to patent publication US12448399B2, “Cereblon-based KRAS degrading PROTACs and uses related thereto” (Arvinas Operations, Inc., priority 2023, dated 2025):

Target: T1, KRas-G12D (Homo sapiens, UniProt P01116, G12D)
T1 construct: insert the HiBiT tag onto the N-terminus of one or more of the endogenous KRas alleles; host or cells: AsPC-1 HiBiT-KRasG12D knock-in clone (one tagged allele, two untagged KRasG12D alleles)
Assay: HiBiT Degradation Assay (G12D), AsPC-1 HiBiT-KRasG12D cells, 24 hr
Format: cell-based
Settings: for Dmax: ASPC1, AsPC-1 cells, maximum degradation observed; for DC50: AsPC-1 cells
Summary of the method: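 AsPC-1 cells with CRISPR N-terminal HiBiT knock-in on one endogenous KRasG12D allele, treated 24 hr at 37° C with compound titrations in 0.5% DMSO. Lytic HiBiT luminescence normalized to DMSO, fitted to a 4-parameter model for DC50 and Dmax. Parallel alamar blue (4 hr) checked viability.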

T1 sequence (P01116 1-188 isoform P01116-2 G12D): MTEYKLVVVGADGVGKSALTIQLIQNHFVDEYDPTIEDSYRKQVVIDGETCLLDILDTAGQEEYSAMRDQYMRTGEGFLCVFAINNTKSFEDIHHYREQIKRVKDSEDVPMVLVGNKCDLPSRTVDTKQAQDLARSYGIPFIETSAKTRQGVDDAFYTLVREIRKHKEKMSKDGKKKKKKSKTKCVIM

Compound | Dmax [%] | DC50 [µM]
C#Cc1c(F)ccc2cc(O)cc(-c3ncc4c(N5CC6CCC(C5)N6)nc(OCCN5CCC6(CC5)CCN(CC5CCN(c7ccc8c(c7)n(C(C)C)c(=O)n8C7CCC(=O)NC7=O)CC5)CC6)nc4c3F)c12 (stereo not shown) [Compound 202, 3-(5-{4-[(9-{2-[(4-{3,8-diazabicyclo[3.2.1]octan-3-yl}-7-(8-ethynyl-7-fluoro-3-hydroxynaphthalen-1-yl)-8-fluoropyrido[4,3-d]pyrimidin-2-yl)oxy]ethyl}-3,9-diazaspiro[5.5]undecan-3-yl)methyl]piperidin-1-yl}-2-oxo-3-(propan-2-yl)-2,3-dihydro-1H-1,3-benzodiazol-1-yl)piperidine-2,6-dione] | > 70 | < 5.1
C#Cc1c(F)ccc2cc(O)cc(-c3ncc4c(N5CC6CCC(C5)N6)nc(OCCN5CCC6(CC5)CCN(CC5CCN(c7ccc8c(c7F)n(C(C)C)c(=O)n8C7CCC(=O)NC7=O)CC5)CC6)nc4c3F)c12 (stereo not shown) [Compound 203, 3-[5-[4-[[9-[2-[4-(3,8-diazabicyclo[3.2.1]octan-3-yl)-7-(8-ethynyl-7-fluoro-3-hydroxy-1-naphthyl)-8-fluoro-pyrido[4,3-d]pyrimidin-2-yl]oxyethyl]-3,9-diazaspiro[5.5]undecan-3-yl]methyl]-1-piperidyl]-4-fluoro-3-isopropyl-2-oxo-benzimidazol-1-yl]piperidine-2,6-dione] | > 70 | < 5.1
C#Cc1c(F)ccc2cc(O)cc(-c3ncc4c(N5CC6CCC(C5)N6)nc(OC[C@]56CCCN5[C@H](CN5CCN(CC7CCN(c8ccc9c(c8)n(C)c(=O)n9C8CCC(=O)NC8=O)CC7)CC5)CC6)nc4c3F)c12 (stereo partly drawn) [Compound 204, 3-[5-[4-[[4-[[(3S,8R)-8-[[4-(3,8-diazabicyclo[3.2.1]octan-3-yl)-7-(8-ethynyl-7-fluoro-3-hydroxy-1-naphthyl)-8-fluoro-pyrido[4,3-d]pyrimidin-2-yl]oxymethyl]-1,2,3,5,6,7-hexahydropyrrolizin-3-yl]methyl]piperazin-1-yl]methyl]-1-piperidyl]-3-methyl-2-oxo-benzimidazol-1-yl]piperidine-2,6-dione] | > 70 | < 5.1
CCc1c(F)ccc2cc(O)cc(-c3ncc4c(N5CC6CCC(C5)N6)nc(OCCN5CCC(CC6CCN(CC7CCN(c8ccc9c(c8)n(C)c(=O)n9C8CCC(=O)NC8=O)CC7)CC6)CC5)nc4c3F)c12 (stereo not shown) [Compound 205, 3-{5-[4-({4-[(1-{2-[(4-{3,8-diazabicyclo[3.2.1]octan-3-yl}-7-(8-ethyl-7-fluoro-3-hydroxynaphthalen-1-yl)-8-fluoropyrido[4,3-d]pyrimidin-2-yl)oxy]ethyl}piperidin-4-yl)methyl]piperidin-1-yl}methyl)piperidin-1-yl]-3-methyl-2-oxo-2,3-dihydro-1H-1,3-benzodiazol-1-yl}piperidine-2,6-dione] | > 70 | < 5.1
C#Cc1c(F)ccc2cc(O)cc(-c3ncc4c(N5CC6CCC(C5)N6)nc(OCCN5CCC(CC6CCN(CC7CCN(c8ccc9c(c8F)n(C)c(=O)n9C8CCC(=O)NC8=O)CC7)CC6)CC5)nc4c3F)c12 (stereo not shown) [Compound 206, 3-{5-[4-({4-[(1-{2-[(4-{3,8-diazabicyclo[3.2.1]octan-3-yl}-7-(8-ethynyl-7-fluoro-3-hydroxynaphthalen-1-yl)-8-fluoropyrido[4,3-d]pyrimidin-2-yl)oxy]ethyl}piperidin-4-yl)methyl]piperidin-1-yl}methyl)piperidin-1-yl]-4-fluoro-3-methyl-2-oxo-2,3-dihydro-1H-1,3-benzodiazol-1-yl}piperidine-2,6-dione] | > 70 | < 5.1
CCc1c(F)ccc2cc(O)cc(-c3ncc4c(N5CC6CCC(C5)N6)nc(OC[C@@H]5C[C@@H](OC6CCN(CC7CCN(c8ccc9c(c8)n(C)c(=O)n9C8CCC(=O)NC8=O)CC7)CC6)CN5C)nc4c3F)c12 (stereo partly drawn) [Compound 207, 3-(5-{4-[(4-{[(3R,5S)-5-{[(4-{3,8-diazabicyclo[3.2.1]octan-3-yl}-7-(8-ethyl-7-fluoro-3-hydroxynaphthalen-1-yl)-8-fluoropyrido[4,3-d]pyrimidin-2-yl)oxy]methyl}-1-methylpyrrolidin-3-yl]oxy}piperidin-1-yl)methyl]piperidin-1-yl}-3-methyl-2-oxo-2,3-dihydro-1H-1,3-benzodiazol-1-yl)piperidine-2,6-dione] | > 70 | < 5.1
C#Cc1c(F)ccc2cc(O)cc(-c3ncc4c(N5CC6CCC(C5)N6)nc(OC[C@]56CCCN5[C@H](CN5CCN(CC7CCN(c8ccc9c(c8)n(C(C)C)c(=O)n9C8CCC(=O)NC8=O)CC7)CC5)CC6)nc4c3F)c12 (stereo partly drawn) [Compound 208, 3-[5-[4-[[4-[[(3S,8R)-8-[[4-(3,8-diazabicyclo[3.2.1]octan-3-yl)-7-(8-ethynyl-7-fluoro-3-hydroxy-1-naphthyl)-8-fluoro-pyrido[4,3-d]pyrimidin-2-yl]oxymethyl]-1,2,3,5,6,7-hexahydropyrrolizin-3-yl]methyl]piperazin-1-yl]methyl]-1-piperidyl]-3-isopropyl-2-oxo-benzimidazol-1-yl]piperidine-2,6-dione] | > 70 | < 5.1
CCc1c(F)ccc2cc(O)cc(-c3ncc4c(N5CC6CCC(C5)N6)nc(OC[C@@H]5C[C@@H](OC6CCN(CC7CCN(c8ccc9c(c8)n(C(C)C)c(=O)n9C8CCC(=O)NC8=O)CC7)CC6)CN5C)nc4c3F)c12 (stereo partly drawn) [Compound 209, 3-(5-{4-[(4-{[(3R,5S)-5-{[(4-{3,8-diazabicyclo[3.2.1]octan-3-yl}-7-(8-ethyl-7-fluoro-3-hydroxynaphthalen-1-yl)-8-fluoropyrido[4,3-d]pyrimidin-2-yl)oxy]methyl}-1-methylpyrrolidin-3-yl]oxy}piperidin-1-yl)methyl]piperidin-1-yl}-2-oxo-3-(propan-2-yl)-2,3-dihydro-1H-1,3-benzodiazol-1-yl)piperidine-2,6-dione] | > 70 | < 5.1
C#Cc1c(F)ccc2cc(O)cc(-c3ncc4c(N5CC6CCC(C5)N6)nc(OCC5(CN6CCC(CC7CCN(c8ccc9c(c8)n(C)c(=O)n9C8CCC(=O)NC8=O)CC7)CC6)CC5)nc4c3F)c12 (stereo not shown) [Compound 210, 3-{5-[4-({1-[(1-{[(4-{3,8-diazabicyclo[3.2.1]octan-3-yl}-7-(8-ethynyl-7-fluoro-3-hydroxynaphthalen-1-yl)-8-fluoropyrido[4,3-d]pyrimidin-2-yl)oxy]methyl}cyclopropyl)methyl]piperidin-4-yl}methyl)piperidin-1-yl]-3-methyl-2-oxo-2,3-dihydro-1H-1,3-benzodiazol-1-yl}piperidine-2,6-dione] | > 70 | < 5.1
C#Cc1c(F)ccc2cc(O)cc(-c3ncc4c(N5CC6CCC(C5)N6)nc(OC[C@@H]5CC[C@@H](CN6CCN(CC7CCN(c8ccc9c(c8)n(C(C)C)c(=O)n9C8CCC(=O)NC8=O)CC7)CC6)N5C)nc4c3F)c12 (stereo partly drawn) [Compound 211, 3-(5-{4-[(4-{[(2S,5S)-5-{[(4-{3,8-diazabicyclo[3.2.1]octan-3-yl}-7-(8-ethynyl-7-fluoro-3-hydroxynaphthalen-1-yl)-8-fluoropyrido[4,3-d]pyrimidin-2-yl)oxy]methyl}-1-methylpyrrolidin-2-yl]methyl}piperazin-1-yl)methyl]piperidin-1-yl}-2-oxo-3-(propan-2-yl)-2,3-dihydro-1H-1,3-benzodiazol-1-yl)piperidine-2,6-dione] | – | < 5.1
CCc1c(F)ccc2cc(O)cc(-c3ncc4c(N5CC6CCC(C5)N6)nc(OCCN5CCC(CC6CCN(CC7CCN(c8ccc9c(c8)n(C(C)C)c(=O)n9C8CCC(=O)NC8=O)CC7)CC6)CC5)nc4c3F)c12 (stereo not shown) [Compound 212, 3-{5-[4-({4-[(1-{2-[(4-{3,8-diazabicyclo[3.2.1]octan-3-yl}-7-(8-ethyl-7-fluoro-3-hydroxynaphthalen-1-yl)-8-fluoropyrido[4,3-d]pyrimidin-2-yl)oxy]ethyl}piperidin-4-yl)methyl]piperidin-1-yl}methyl)piperidin-1-yl]-2-oxo-3-(propan-2-yl)-2,3-dihydro-1H-1,3-benzodiazol-1-yl}piperidine-2,6-dione] | > 70 | < 5.1
C#Cc1c(F)ccc2cc(O)cc(-c3ncc4c(N5CC6CCC(C5)N6)nc(OC[C@@H]5C[C@@H](OC6CCN(CC7CCN(c8ccc9c(c8F)n(C)c(=O)n9C8CCC(=O)NC8=O)CC7)CC6)CN5C)nc4c3F)c12 (stereo partly drawn) [Compound 213, 3-(5-{4-[(4-{[(3R,5S)-5-{[(4-{3,8-diazabicyclo[3.2.1]octan-3-yl}-7-(8-ethynyl-7-fluoro-3-hydroxynaphthalen-1-yl)-8-fluoropyrido[4,3-d]pyrimidin-2-yl)oxy]methyl}-1-methylpyrrolidin-3-yl]oxy}piperidin-1-yl)methyl]piperidin-1-yl}-4-fluoro-3-methyl-2-oxo-2,3-dihydro-1H-1,3-benzodiazol-1-yl)piperidine-2,6-dione] | > 70 | < 5.1
C#Cc1c(F)ccc2cc(O)cc(-c3ncc4c(N5CC6CCC(C5)N6)nc(OCCN5CCC(CC6CCN(CC7CCN(c8ccc9c(c8F)CN([C@H]8CCC(=O)NC8=O)C9=O)CC7)CC6)CC5)nc4c3F)c12 [Compound 214, (3S)-3-{5-[4-({4-[(1-{2-[(4-{3,8-diazabicyclo[3.2.1]octan-3-yl}-7-(8-ethynyl-7-fluoro-3-hydroxynaphthalen-1-yl)-8-fluoropyrido[4,3-d]pyrimidin-2-yl)oxy]ethyl}piperidin-4-yl)methyl]piperidin-1-yl}methyl)piperidin-1-yl]-4-fluoro-1-oxo-2,3-dihydro-1H-isoindol-2-yl}piperidine-2,6-dione] | > 70 | < 5.1
